Columns and labels:
recombinant PME-1_des3 = recombinant PME-1_des3 (Homo sapiens, UniProt Q9Y570); test: Thermal melt (thermal shift) assay; format: binding; conditions: 50 μM ABL-127; PME-1+DMSO vehicle ˜55° C.
Experimental: There are several commercially available covalent PME-1 inhibitors that we have analyzed as potential endometrial cancer therapeutics. To confirm that the inhibitors directly bind PME-1, we completed a thermal melt assay. One micromole (1 μmole) of recombinant PME-1_des3, of which the last 3 amino acids are deleted, were pre-incubated with SYBR orange in the presence of 50 μM ABL-127 (a potent covalent PME-1 inhibitor, squares) or 0.05% DMSO (vehicle, circles) for 10 minutes (FIG. 25) at 37° C. We then performed a thermal gradient, increasing the temperature by 2° C. each minute from 37° C. to 95° C. and fluorescent signal was detected at 492-601 nm on a thermal cycler. The increase in Tm from ˜55° C. (PME-1+DMSO, circles) to ˜65° C. (PME-1+ABL-127, squares) indicated thermal stabilization of the PME-1 protein via direct binding of the ABL-127 inhibitor (FIG. 25).
The assay was completed by first conducting a 10 min pre-incubation of one μmole of recombinant PME-1des3 with 50 μM ABL127 (Sigma) or vehicle (0.05% DMSO) in the presence of SYBR Orange (1:1,000, v/v, Sigma) at 37° C. in 1×NEB buffer 2 (50 mM NaCl, 10 mM Tris-HCl, 10 mM MgCl2, 1 mM DTT, pH 7.9 at 25° C.), a thermal gradient was performed increasing temperature by 2° C. per minute increments from 37° to 95° C. and fluorescence (492 nm-610 nm) was acquired on a thermal cycler Mx3005P (Stratagene).

Ishikawa cells [1] = test: Foci formation assay, Ishikawa cells; format: cell-based, human; conditions: DMSO set to 100%
Experimental: This study was completed in Ishikawa endometrial cancer cells.
1,000 cells were plated in a six well tissue culture dish in selection media (to include 5 μg/ml puromycin) (InvivoGen). Cells were allowed to adhere and grow in a 5% CO2, 37° C. incubator for 10 to 14 days. […] Cells were stained with 1% crystal violet (Sigma Aldrich) for five minutes and rinsed with PBS. Colonies were counted and data is presented as the percentage of change compared to the control. All Experiments were repeated at least three times.

Ishikawa cells [2] = test: Trans-well migration assay; format: cell-based, human; conditions: 24 hr, collagen, 30% FBS bottom chamber
Experimental: We next asked if PME-1 inhibition led to decreased cell migration by completing a trans-well migration assay. Cells were synchronized for 24 hours in media containing 0% FBS. For this experiment, DMSO was again used as the vehicle control and Ishikawa cells were treated with DMSO (control) or 50 nM ABL-127 or 20 μM AMZ-30 for 24 hr and were allowed to migrate through a collagen-coated well towards the bottom chamber, containing media with 30% FBS.
The assay was completed with ECC-1 endometrial carcinoma cell lines following kit instructions Cultrex 96 Well Collagen IV Cell Invasion Assay (cat #3458-096-K). Briefly, cells were serum starved for 24 hours prior to experimentation, then counted and put into the top chamber of a collagen type IV coated Transwell membrane at a concentration of 1×10^6 cells/well in 0% FBS. The bottom chamber contained 30% FBS. Cells were allowed to invade at 37° C. humid chamber incubator for 24 hours. Cells that invaded were analyzed using the kit provided Calcein-AM and fluorescence was read using FluoStar Galaxy.

PME-1 [3] = test: Western blot of PME-1 protein in RL95-2 cells; format: cell-based, human; conditions: GAPDH loading control
Experimental: We prepared RL95-2 cell lines expressing empty vector (control), over-expressing PME-1 (+PME-1), or expressing shRNA against PPME1, the gene that codes for PME-1 protein (−PME-1). Using these cells, we confirmed the appropriate level of PME-1 via real-time RT-PCR (data not shown) and Western blot analysis (FIG. 8). GAPDH was used as a loading control.
We also prepared two different shRNAs targeted against PME-1.
15 μg of protein was used for western analysis. PME-1 antibody (Santa Cruz) and COXIV (Cell Signaling Technologies) were used for detection of proteins and the blots were developed using chemiluminescence (Pierce ECL Western Blotting Substrate—Thermo Scientific) on the GE ImageQuant LAS 4000. For analysis of Akt, ERK, and β-catenin signaling in tissue culture, western analyses were completed as follows. RL95-2 cells stably infected with lentivirus expressing constructs were selected with puromycin (Invivogen). The cells were incubated with either 50 μM Akt inhibitor (LY 294002, Cell Signaling Technologies) or 40 μM ERK inhibitor (V0126, Cell Signaling Technologies) for 1-2 hours at 37° C. 1.5× Laemelli buffer (0.5 M Tris pH6.8, […], 10% sodium dodecyl sulfate, 100 mM EDTA) was used to prepare cell lysates. 20 μg of protein was used for western analysis. […]

RL95-2 cells = test: Colony forming / invasive growth assay in Matrigel; format: cell-based, human; conditions: RL95-2, 10 ng/ml TGF-β, 10 days
Experimental: To determine if PME-1 contributes to the more invasive and metastatic phenotypes, we performed a colony forming assay in matrigel.
The 3D On Top Matrigel Assay was completed in 24 well dishes. Briefly, the bottoms of 24 well dishes were coated with 50 μl BD Matrigel Basement Matrix Phenol Red Free (BD Biosciences cat. #356237) and allowed to solidify at 37° C. 10^5 cells were suspended in 250 μl chilled medium containing either 10 ng/ml of TGF-b or vehicle and allowed to settle at 37° C. for 30 minutes. Chilled medium containing 10% of Matrigel was added by pipetting gently down the sidewall of the well and incubated at 37° C. for ten days changing top medium every second day. Colony counts were performed on the tenth day; averages were taken from three fields of view using a 10× objective. Experiment was repeated three times.

PME-1 [4] = test: Quantitative real-time PCR of PME-1 expression after TGF-β treatment; format: cell-based, human; conditions: RL95-2 control cells and +PME-1 cells, TGF-β 24 hours
Experimental: In this study, we transfected RL95-2 cells to express empty vector (Control), over-expressing PME-1 (+PME-1) or expressing shRNA against PME-1 (−PME-1 SEQ ID NO: 2) followed by serum starvation for 24 hours. Afterwards, either vehicle or TGF-β treatment was performed at the end of the 24 hours. TGF-β was used to induce cells to initiate the EMT program. Gene expression analysis was conducted using quantitative real-time PCR.
Total RNA was extracted with Qiagen RNAEasy kit from RL95-2 cells. cDNA was synthesized using 500 ng-1 μg of RNA and SuperScript VILO c-DNA mix (Life Technologies). Taqman probes and PCR-mix were purchased from Life Technologies. All samples were run in triplicates. Results are representative of three independent experiments in which genes of interest were normalized to the house-keeping gene, 18S or GAPDH, where fold-change was calculated using the ddCt method.

recombinant PME-1_des3, sequence (Q9Y570 1-383): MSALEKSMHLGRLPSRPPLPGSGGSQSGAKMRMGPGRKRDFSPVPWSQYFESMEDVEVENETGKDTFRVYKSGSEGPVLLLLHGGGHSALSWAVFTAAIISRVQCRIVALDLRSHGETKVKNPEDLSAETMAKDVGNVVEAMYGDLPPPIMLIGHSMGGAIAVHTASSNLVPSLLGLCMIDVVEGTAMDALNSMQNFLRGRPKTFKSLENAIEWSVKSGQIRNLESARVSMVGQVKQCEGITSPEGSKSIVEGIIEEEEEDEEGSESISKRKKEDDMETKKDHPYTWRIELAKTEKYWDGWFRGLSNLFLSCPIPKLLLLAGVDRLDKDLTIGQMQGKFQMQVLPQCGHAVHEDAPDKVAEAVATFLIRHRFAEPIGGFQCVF

COC(=O)N1C(=O)C(c2ccccc2)(C2CCCC2)N1C(=O)OC (stereo in doubt) [ABL-127, (3R)-Dimethyl 3-cyclopentyl-4-oxo-3-phenyl-1,2-diazetidine-1,2,-dicarboxylate]
Tm of PME-1 with inhibitor (recombinant PME-1_des3): ~65 °C
decrease in the amount of foci formed (Ishikawa cells [1]; 50 nM every 2-3 days for 10 days): ~50%
percentage of cells capable of migrating (Ishikawa cells [2]; 50 nM): dramatic decrease in the percentage of cells that are capable of migrating

shPPME1 no. 1: shRNA against PPME1, target sequence SEQ ID NO: 1 GTACAGCTATGGATGCACTTA, bp 554-574; full hairpin SEQ ID NO: 7 (CCGGGTACAGCTATGGATGCACTTACTCGAGTAAGTGCATCCATAGCTGTACTTTTT; listed as Homo sapiens)
PME-1 levels by Western blot analysis (PME-1 [3]): significantly decreased PME-1 levels

TGF-β
colony number in Matrigel (RL95-2 cells): overall decrease in colony number
increase in PME-1 expression (PME-1 [4]): ~2 fold

N#C/C(=C\c1cccn1S(=O)(=O)c1cccc([N+](=O)[O-])c1)S(=O)(=O)c1ccc(F)cc1 [AMZ-30, (E)-2-(4-Fluorophenylsulfonyl)-3-(1-(3-nitrophenylsulfonyl)-1H-pyrrol-2-yl)-acrylonitrile]
decrease in the amount of foci formed (Ishikawa cells [1]; 25 μM every 2-3 days for 10 days): ~50%
percentage of cells capable of migrating (Ishikawa cells [2]; 20 μM): dramatic decrease in the percentage of cells that are capable of migrating
